Assay results as given in EP0982318A2, “Enchanced phosphorylation of P53 by ATM in response to DNA damage” (RAMOT UNIVERSITY AUTHORITY FOR APPLIED RESEARCH & …, priority 1998, dated 2000).
Read-outs that look alike come from different tables or passages of the source.

Assays:
[1] = target: T1, ATM (Homo sapiens, UniProt Q13315); assay: ATM immune complex protein kinase assay (inhibition by wortmannin); assay type: biochemical
T1 construct: endogenous in cells; host or cells: cultured cells, lysed and immunoprecipitated with anti-ATM monoclonal antibody
Method: (§1) For these experiments, 5X10^6 cells were washed in ice-cold phosphate buffered saline and lysed in 700 µl of 10 mM Tris-HCl (pH 7.5), 150 mM NaCl, 0.2% dodecyl maltoside (Sigma), 5 mM EDTA, 50 mM NaF, 2 mM phenylmethylsulfonylfluoride, 100 µM NaVO4, 2 µg/ml aprotonin (lysis buffer). Freshly prepared cell lysates were incubated for 2 hours at 4°C on a rotator with 10 µl of hybridoma supernatants. Fifty µl of magnetic beads coated with anti-mouse IgG (Dynabeads M-450, DYNAL, Oslo, Norway) were added and the mixture was further rotated at 4°C for 2 hours. Immune complexes were collected using a magnetic stand (DYNAL) and washed 3 times with lysis buffer. For Western blotting analysis, 1/3 of this mixture was loaded on a polyacrylamide-SDS gel which was later blotted onto a nitrocellulose membrane (Nitrocell MFF, Pharmacia Biotech, San Francisco, CA) as previously described [ref 8]. Immune complexes were washed twice with kinase buffer (50 mM Hepes, pH 7.5, 150 mM NaCl, 4 mM MnCl2, 6 mM MgCl2, 10% v/v glycerol, 1 mM DTT, 100 µM NaVO4). Two hundred ng - 1 µg substrate, 10 µCi [32P]ATP and ATP to final concentration of 5 µM were added, and the reaction mixtures were incubated at 30°C for 3-15 minutes. […]
ATM immune complexes were incubated with various concentrations of the drug and washed with the reaction buffer before kinase activity was measured. […]

[2] = test system: ATM; assay: Kinase activity of ATM immunoprecipitated from cells treated with NCS; assay type: cell-based, human
Method: as §1, with “NaVO4).” for “NaVO4). Two hundred ng - 1 µg substrate, 10 µCi [32P]ATP and ATP to final concentration of 5 µM were added, and the reaction mixtures were incubated at 30°C for 3-15 minutes.”
Kinase activity was assayed using the p53-N47 substrate. The histogram presents quantitation of the data from the top panel (B). […]
U: untreated cells. The curve presents quantitation of the data from the top panel.

T1 sequence (Q13315 whole entry): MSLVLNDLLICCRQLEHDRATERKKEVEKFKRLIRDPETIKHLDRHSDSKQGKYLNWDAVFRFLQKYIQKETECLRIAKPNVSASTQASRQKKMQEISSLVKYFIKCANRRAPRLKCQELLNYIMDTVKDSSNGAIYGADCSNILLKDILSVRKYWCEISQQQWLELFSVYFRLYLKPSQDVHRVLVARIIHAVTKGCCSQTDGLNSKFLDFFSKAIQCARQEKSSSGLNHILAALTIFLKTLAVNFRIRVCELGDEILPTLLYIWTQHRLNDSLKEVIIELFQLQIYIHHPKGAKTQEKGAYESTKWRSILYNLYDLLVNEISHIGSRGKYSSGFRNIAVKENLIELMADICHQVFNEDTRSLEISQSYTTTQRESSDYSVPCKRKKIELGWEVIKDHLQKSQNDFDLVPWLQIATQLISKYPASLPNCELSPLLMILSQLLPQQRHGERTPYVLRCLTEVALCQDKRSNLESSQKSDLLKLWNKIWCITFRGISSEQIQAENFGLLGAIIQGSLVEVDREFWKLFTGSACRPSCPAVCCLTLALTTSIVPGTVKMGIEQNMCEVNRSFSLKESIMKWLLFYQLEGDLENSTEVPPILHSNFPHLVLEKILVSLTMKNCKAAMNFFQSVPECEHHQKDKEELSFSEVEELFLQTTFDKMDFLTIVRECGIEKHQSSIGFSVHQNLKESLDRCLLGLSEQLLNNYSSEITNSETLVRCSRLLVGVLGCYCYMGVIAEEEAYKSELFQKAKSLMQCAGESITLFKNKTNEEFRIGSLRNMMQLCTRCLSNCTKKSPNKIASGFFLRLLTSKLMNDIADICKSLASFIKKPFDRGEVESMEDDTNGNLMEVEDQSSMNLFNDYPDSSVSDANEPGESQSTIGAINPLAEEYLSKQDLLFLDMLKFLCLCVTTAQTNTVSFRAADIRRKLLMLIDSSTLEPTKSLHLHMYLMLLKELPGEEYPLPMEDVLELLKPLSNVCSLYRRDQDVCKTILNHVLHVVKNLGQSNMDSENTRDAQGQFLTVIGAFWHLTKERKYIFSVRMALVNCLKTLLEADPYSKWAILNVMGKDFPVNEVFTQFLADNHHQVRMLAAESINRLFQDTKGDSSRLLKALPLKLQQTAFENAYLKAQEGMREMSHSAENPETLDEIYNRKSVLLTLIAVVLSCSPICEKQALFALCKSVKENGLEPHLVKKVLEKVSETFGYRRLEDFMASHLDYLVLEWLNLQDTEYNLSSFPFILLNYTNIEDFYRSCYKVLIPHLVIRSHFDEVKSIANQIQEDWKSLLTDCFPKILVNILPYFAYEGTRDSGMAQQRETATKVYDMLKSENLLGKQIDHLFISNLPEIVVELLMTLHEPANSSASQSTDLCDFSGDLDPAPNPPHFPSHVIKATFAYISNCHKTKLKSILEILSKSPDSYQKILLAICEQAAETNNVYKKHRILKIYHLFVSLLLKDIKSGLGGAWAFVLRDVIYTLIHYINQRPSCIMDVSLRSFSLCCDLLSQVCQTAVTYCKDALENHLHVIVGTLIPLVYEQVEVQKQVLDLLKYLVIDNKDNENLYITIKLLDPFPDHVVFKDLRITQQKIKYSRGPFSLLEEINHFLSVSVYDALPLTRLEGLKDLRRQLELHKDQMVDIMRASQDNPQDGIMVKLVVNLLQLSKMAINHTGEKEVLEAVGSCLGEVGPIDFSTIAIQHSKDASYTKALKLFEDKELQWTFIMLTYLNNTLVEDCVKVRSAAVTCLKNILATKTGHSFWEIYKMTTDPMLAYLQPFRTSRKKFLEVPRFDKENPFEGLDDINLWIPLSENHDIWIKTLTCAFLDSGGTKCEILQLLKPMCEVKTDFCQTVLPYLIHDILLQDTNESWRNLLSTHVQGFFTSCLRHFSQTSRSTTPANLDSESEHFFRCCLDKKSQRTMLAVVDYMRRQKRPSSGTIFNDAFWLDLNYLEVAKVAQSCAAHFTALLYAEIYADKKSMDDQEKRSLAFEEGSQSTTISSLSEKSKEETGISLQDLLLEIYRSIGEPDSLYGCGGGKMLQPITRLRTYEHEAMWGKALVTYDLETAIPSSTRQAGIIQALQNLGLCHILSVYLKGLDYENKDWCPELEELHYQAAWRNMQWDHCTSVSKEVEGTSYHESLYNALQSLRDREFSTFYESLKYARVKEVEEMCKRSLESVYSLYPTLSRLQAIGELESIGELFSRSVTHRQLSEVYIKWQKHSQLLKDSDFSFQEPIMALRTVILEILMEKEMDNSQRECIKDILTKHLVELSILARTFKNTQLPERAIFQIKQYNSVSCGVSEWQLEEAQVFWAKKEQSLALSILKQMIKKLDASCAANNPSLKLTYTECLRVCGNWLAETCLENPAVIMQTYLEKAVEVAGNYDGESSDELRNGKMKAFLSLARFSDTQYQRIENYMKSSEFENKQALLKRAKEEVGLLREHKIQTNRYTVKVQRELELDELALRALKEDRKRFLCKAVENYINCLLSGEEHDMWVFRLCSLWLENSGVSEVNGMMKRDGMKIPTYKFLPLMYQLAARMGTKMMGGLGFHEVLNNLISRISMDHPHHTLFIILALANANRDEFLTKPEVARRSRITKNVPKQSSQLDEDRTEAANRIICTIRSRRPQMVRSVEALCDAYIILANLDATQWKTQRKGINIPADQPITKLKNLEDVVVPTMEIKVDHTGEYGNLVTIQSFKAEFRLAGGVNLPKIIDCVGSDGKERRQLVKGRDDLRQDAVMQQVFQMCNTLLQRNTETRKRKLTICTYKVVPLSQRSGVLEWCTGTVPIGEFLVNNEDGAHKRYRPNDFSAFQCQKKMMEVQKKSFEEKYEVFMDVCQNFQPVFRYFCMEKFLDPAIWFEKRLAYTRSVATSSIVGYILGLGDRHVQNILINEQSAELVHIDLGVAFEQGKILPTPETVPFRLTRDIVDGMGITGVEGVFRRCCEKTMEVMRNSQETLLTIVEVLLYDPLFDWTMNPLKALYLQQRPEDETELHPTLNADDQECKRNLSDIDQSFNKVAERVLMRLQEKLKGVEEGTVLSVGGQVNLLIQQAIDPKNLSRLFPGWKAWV

| Molecule | IC50 [1] [nM] | IC50 ([1]; ATM immune complexes exposed to wortmannin for 30 minutes and washed before kinase assay, PHAS-I as substrate, activity normalized to amount of ATM protein, read-out: IC50 (sensitivity of ATM-associated kinase activity to wortmannin)) [nM] | maximal enhancement of ATM's activity compared to its basal activity ([2]; nine experiments, ATM immunoprecipitated from cells after NCS treatment, p53-N47 substrate) [fold] | time of second enhancement of ATM's activity following treatment ([2]; time course after NCS (50 ng/ml), Figure 3B) |
| --- | --- | --- | --- | --- |
| COC[C@H]1OC(=O)c2coc3c2[C@@]1(C)C1=C(C3=O)[C@@H]2CCC(=O)[C@@]2(C)C[C@H]1OC(C)=O [wortmannin] | 80 | 100 | – | – |
| neocarzinostatin [NCS] | – | – | 4.4±0.8 | about 120 minutes |
